Laboratory results taken from US20170071991A1, “Oncolytic Virus and Aurora Kinase Inhibitor for the Treatment of Cancer” (priority 2014, published 2017).
“Also recorded” adds a separate entry of the source.

How the values were obtained:
S462TY flank xenografts = experiment: S462TY nude mouse flank xenograft, single HSV1716 dose plus MLN8237 20 mg/kg twice daily; type: in vivo, nude mice
Protocol: Single intratumoral (ITu) injections of 1.0×10^7 pfu HSV1716 or PBS or single intravenous (IV) injections of 9.0×10^7 pfu HSV1716 or PBS were administered on day 7 and tumor growth and survival were monitored.

S462TY xenografts = experiment: S462TY nude mouse xenograft, multiple cycles of lower dose MLN8237 plus HSV1716; type: in vivo, nude mice; settings: multiple weekly ITu HSV1716 1×10^7 pfu and/or MLN8237 10 mg/kg once daily 5-day cycles
From the text: The schema used for each of the 4 groups is shown in FIG. 8 and tumor growth and survival were monitored throughout the experiment.

[1] = tested on: SK-N-AS flank xenografts (neuroblastoma); experiment: SK-N-AS nude mouse flank xenograft model; type: in vivo, nude mice
From the text: SK-N-AS cells were derived from a bone marrow metastasis […] of a child with poorly differentiated embryonal neuroblastoma and the cell line readily formed flank xenografts in nude mice. […] The schema used for each of the 4 groups is shown in FIG. 13 and tumor growth and survival were monitored throughout the experiment.

[2] = tested on: HSV1716 titre in S462TY xenografts; experiment: HSV1716 titration of S462TY xenograft tumours after ITu injection; type: in vivo, mice
From the text: MLN8237-treated or control, untreated mice with S462TY xenografts received ITu HSV1716 and tumours, removed at 2 and 48 hrs after virus administration, were titrated (FIG. 18).

[3] = tested on: HSV1716 uptake by S462TY cells; experiment: Quantitative PCR for HSV1716 genomes in S462TY cells in vitro; type: cell-based; settings: 30 min post infection, acid wash
Protocol: S462TY cells were infected with HSV1716 and an acid wash after 30 mins was used to remove residual free virus which had not penetrated intracellularly.

[4] = tested on: multiple tumor cell lines; settings: values as low as; read-out: GI50, growth of multiple tumor cell lines; cited from earlier work
[5] = tested on: receptors and ion channels; settings: cited from earlier work
[6] = cited from earlier work
[7] = tested on: senescence-associated beta-galactosidase in S462TY xenografts; experiment: Senescence detection with X-gal (SA-β-gal) in S462TY xenografts
[8] = pro-drug; cited from earlier work
[9] = human plasma; cited from earlier work
[10] = tested on: human acute myelogenous leukemia (HL60) nude mice xenografts; settings: cited from earlier work
[11] = tested on: human colon cancer (HCT116) nude rat xenograft; settings: HCT116 nude rat xenograft model; cited from earlier work
[12] = S462TY flank xenografts, best response for at least 21 days, last response day 53, route as in label
[13] = S462TY flank xenografts, day 53, route as in label

## COc1cc(Nc2ncc3c(n2)-c2ccc(Cl)cc2C(c2c(F)cccc2OC)=NC3)ccc1C(=O)O [MLN8237]
S462TY flank xenografts; HSV1716 single ITu 1.0×10^7 pfu day 7 and/or MLN8237 20 mg/kg oral twice daily, 42 days
  tumor growth of S462TY xenografts (FIG. 5a): initially effective at preventing growth of the xenografts
S462TY flank xenografts; HSV1716 single ITu 1×10^7 pfu day 7 and/or MLN8237 20 mg/kg twice daily
  survival compared to vehicle/PBS-treated controls (FIG. 6): improved survival
S462TY flank xenografts; [12]
  PR-->PD, evaluable mice: 0
  SD-->PD, evaluable mice: 6
S462TY flank xenografts; S462TY flank xenografts, day 53 (11 days after last treatment), MLN8237 20 mg/kg oral twice daily 5 d/week 42 days, HSV1716 single ITu 1.0×10^7 or IV 9.0×10^7 pfu day 7, route as in label
  PD (Progressive Disease), evaluable mice: 4
S462TY flank xenografts; [13]
  CR (Complete Response), evaluable mice: 0
  PR (Partial Response), evaluable mice: 0
S462TY flank xenografts; single agents: IV HSV1716, MLN8237 twice daily doses
  day by which most of the mice had been sacrificed: ≤ 60 days
S462TY xenografts
  tumor growth of S462TY xenografts (FIG. 9, 10): reduced the growth
[1]; day 21
  tumor growth, comparison between the four groups on day 21 (FIG. 16): highly significant reduction in tumor growth
[1]; day 25, single agents
  mice still alive on day 25: approximately 50%
[1]; five weekly ITu HSV1716 1×10^7 pfu and/or MLN8237 10 mg/kg once daily 5-day cycles
  tumor growth of SK-N-AS xenografts (FIG. 14): reduced the growth
[2]; 2 hrs after ITu HSV1716
  free input virus detected in MLN8237-treated tumours: less of the free input virus detected
[2]; 48 hrs after ITu HSV1716
  virus titre in MLN8237-treated compared to untreated control tumors: no apparent increase in virus titre
[3]
  uptake/infection rate of HSV1716 (intracellular genomes, Q-PCR normalised to GAPDH): significantly increases intracellular HSV1716 genomes; also recorded: significantly higher uptake/infection rate
[4]
  GI50: ≥ 16 nM
[5]
  cross-reactivity in broad screen of receptors and ion channels: no significant cross-reactivity
[6]
  oral availability and absorption: orally available and rapidly absorbed
[7]
  sections staining after incubation with X-gal (MLN8237-induced senescence): 1/18

## CCN(CCCOc1ccc2c(Nc3cc(CC(=O)Nc4cccc(F)c4)n[nH]3)ncnc2c1)CCOP(=O)(O)O [AZD1152]
[8]
  solubility: highly soluble
[9]
  cleavage of pro-drug to active drug substance AZD1152 hydroxy-QPA: cleaved completely

## Cc1cc(Nc2cc(N3CCN(C)CC3)nc(Sc3ccc(NC(=O)C4CC4)cc3)n2)n[nH]1 [MK0457]
[10]
  reduction in tumor volume when compared with controls: 98%
[11]
  tumor regression, rats treated: four of the seven rats
